Consider two molecules from patent US20030157583A1, “Methods for determining squalene synthase activity” (priority 2001, published 2003).

Data set [1] concerns the target T1, truncated squalene synthase (tSqS) (Arabidopsis thaliana, UniProt P53799).
T1 sequence (P53799 1-388 limits assumed): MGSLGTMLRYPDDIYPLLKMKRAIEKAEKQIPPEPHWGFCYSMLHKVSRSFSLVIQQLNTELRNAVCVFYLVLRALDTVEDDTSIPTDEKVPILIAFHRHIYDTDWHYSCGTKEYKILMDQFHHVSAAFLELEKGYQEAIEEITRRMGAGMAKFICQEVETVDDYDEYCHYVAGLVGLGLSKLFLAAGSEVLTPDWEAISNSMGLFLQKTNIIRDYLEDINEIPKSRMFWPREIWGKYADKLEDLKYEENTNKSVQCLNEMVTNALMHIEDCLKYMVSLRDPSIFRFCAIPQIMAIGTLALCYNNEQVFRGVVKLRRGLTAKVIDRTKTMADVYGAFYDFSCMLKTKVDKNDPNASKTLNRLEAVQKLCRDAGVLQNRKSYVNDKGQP
Put plainly: biochemical. An excerpt: The conversion of the intermediate PSPP into squalene requires magnesium as a cofactor.

Substrate in data set [2]: CC(C)=CCC/C(C)=C/CC/C(C)=C/CO[P@@](=O)(O)OP(=O)(O)O
The experiment in a line: purified protein, by the assay type. Particulars: other: initial velocity vs FPP concentration, 50 ng tSqS, 100 μM NADPH, 10 mM MgCl2, 37° C., pH 7.5.

By IC50 is commonly meant the midpoint of a concentration-inhibition curve. Higher therefore signals weaker potency in that assay. In data set [1], `O=C(O)CN(CCN(CC(=O)O)CC(=O)O)CC(=O)O` [EDTA] returned a half-inhibitory concentration (IC50) of roughly 8 mM.

B1: truncated squalene synthase (tSqS) (Arabidopsis thaliana) (protein)
chain: T1 sequence (P53799 1-388 limits assumed)
What is called Km is the substrate concentration at which the rate is half of its maximum. Regarding B1, the Km in data set [2] was determined as 42 µM.
